Laboratory results published in patent publication US7375096B1, “Method of preparing a supramolecular complex containing a therapeutic agent and a multi-dimensional polymer network” (California Institute of Technology, priority 1998, dated 2008).

Key:
DNA = experiment: Pentalysine DNA binding with crosslinker DTBP and reducing agent TCEP (agarose gel)
Experimental: Pentalysine was added to DNA for 15 minutes. Crosslinker DTBP was then added to the solution mixture for over 60 minutes. TCEP was added and an agarose gel was run after 30 minutes. […] Thus, crosslinking with DTBP increased the affinity of pentalysine to DNA.

Experimental for BHK-21 cells: BHK-21 cells were plated in 24 well plates at a cell density of 60,000 cells/well 24 hours before transfection. […] Media solution containing the DNA/polymer complexes was added to cultured cells and replaced with fresh media after 24 hours of incubation at 37° C. The cells were lysed 48 hours after transfection. […] Cell lysate was also used to determine cell viability by the Lowry protein assay.

Substance	binding to DNA (DNA)	toxicity (cell viability, Lowry protein assay) (BHK-21 cells)
Pentalysine	not strong enough to bind to the DNA	
β-Cyclodextrin(cystamine)-DMS copolymer [copolymer 15]		No toxicity was observed
